Marks after values point to notes of the source that are not given here.
System: adult subjects with psoriasis
Experiment: Phase II/2b clinical study in plaque psoriasis: efficacy and patient-reported outcomes
Type: in vivo, human
Details: for PGA response rate (primary endpoint): interim analysis; for subjects with ≥4 improvement in pruritus NRS score from baseline: baseline NRS score ≥4; for PGA response rate (PGA 0 or 1 and ≥2-grade improvement): mITT OC; for PGA treatment success: Week 16 (4 weeks after end of treatment)
From the text: This was a multicenter (United States, Canada, and Japan), randomized, double-blind (Sponsor-unblind), vehicle-controlled, 6-arm, parallel-group, dose-finding study in adult subjects with psoriasis. Certain study personnel at each site were unblinded to dose-frequency.
The study consisted of 3 periods: up to 4 weeks Screening, 12 weeks double-blind treatment, and 4 weeks post-treatment follow-up. Study visits occurred at Screening; Baseline; weeks 1, 2, 4, 8, and 12 during the treatment period; and 2 and 4 weeks after the last application of study treatment (i.e., at weeks 14 and 16). Additional visits could occur, as needed, for early withdrawals or to follow-up on any skin reactions or ongoing AEs. A subject's total duration of study participation was approximately 16 to 20 weeks.
Two concentrations of Tapinarof cream (0.5% and 1%) and a vehicle control were evaluated following application to all psoriasis lesions (except on the scalp) once (QD) or twice daily (BID) for 12 weeks. There were no planned dose adjustments during the study.
Efficacy was assessed by using a 5-point static Physician Global Assessment (PGA) (0-4 scale), the Psoriasis Area and Severity Index (PASI), % BSA involvement, target lesion assessments (erythema, scaling, and plaque thickness), and subject-reported itch/pruritus severity using a numeric rating scale (NRS) (from the Psoriasis Symptom Diary [PSD]). Additional subject-reported outcomes included the daily PSD (which also contained severity and bother items for 3 additional symptoms). Investigator global impression of change item (assessing change in severity of psoriasis symptoms) and 2 subject global impressions of change items (assessing change in severity of psoriasis symptoms and change in severity of itch/pruritus) were also assessed.
Physician Global Assessment: The PGA is a clinical tool for assessing the current state/severity of a subject's psoriasis. It is a static 5-point morphological assessment of overall disease severity, as determined by the investigator, using the clinical characteristics of erythema, plaque thickness, and scaling as guidelines. At each specified time point, the PGA is made without reference to previous scores. Variations of the PGA are frequently used in clinical studies because it is a simple assessment that is more similar to the assessments actually used in clinical practice. Scoring system ranges from 0 (=Clear) to 4 (=Severe).
Psoriasis Area and Severity Index: The PASI scoring system is a widely-used standard clinical tool for assessing the severity of psoriasis that takes into account the overall severity of erythema (redness), thickness (induration), and scale, as well as the extent of BSA affected with psoriasis. The 3 clinical signs are each graded on a 5 point scale (0 to 4) and the % BSA affected is scored on a 7-point scale (0 to 6) for each of the 4 specified body regions (head, upper extremities, trunk, and lower extremities). The individual scores are multiplied by a weighted factor for each body region; the sum of these scores gives the overall PASI score. Higher scores indicate more severe disease. PASI is a static assessment made without reference to previous scores.
Body Surface Area: The extent of BSA affected by psoriasis is a general indicator of disease severity and was measured throughout the study. The extent of BSA to which study treatment was applied was also recorded. For the purpose of approximate clinical estimation, the total palmar surface of the palm plus 5 digits was assumed to be approximately equivalent to 1% BSA.
Target Lesion Grading: A single target lesion was selected at Baseline to assess efficacy in treating a discrete area rather than an overall average of all areas. For that lesion, the severity of erythema, scaling, and plaque thickness was assessed by the investigator on a 5-point scale ranging from “0=none” to “4=severe”. […]

Compound: CC(C)c1c(O)cc(/C=C/c2ccccc2)cc1O [Tapinarof, 3,5-Dihydroxy-4-isopropyl-trans-stilbene]
- difference in PGA response rate, active minus vehicle (0.5% BID-vehicle BID, Week 12): 35.6%
- PGA response at Week 12 (0.5% BID, 1 to <10% BSA affected at baseline): 33%
- Target lesion Erythema, percent change from Baseline (Mean) (0.5% BID, Early WD): −25.00%
- Target lesion Plaque thickness, percent change from Baseline (Mean) (0.5% BID, Early WD): −33.33%
- Target lesion Scaling, percent change from Baseline (Mean) (0.5% BID, Early WD): −41.67%
- PGA response at Week 12 (0.5% BID, Fitzpatrick skin type I/II): 50%
- PGA response at Week 12 (0.5% BID, Fitzpatrick skin type III/IV): 60%
- PGA response at Week 12 (0.5% BID, Fitzpatrick skin type V/VI): 25%
- Target lesion Erythema, percent change from Baseline (Mean) (0.5% BID, Follow-up Week 14): −68.25%
- Target lesion Plaque thickness, percent change from Baseline (Mean) (0.5% BID, Follow-up Week 14): −67.86%
- Target lesion Scaling, percent change from Baseline (Mean) (0.5% BID, Follow-up Week 14): −68.65%
- Target lesion Erythema, percent change from Baseline (Mean) (0.5% BID, Follow-up/Week 16): −59.47%
- Target lesion Plaque thickness, percent change from Baseline (Mean) (0.5% BID, Follow-up/Week 16): −54.92%
- Target lesion Scaling, percent change from Baseline (Mean) (0.5% BID, Follow-up/Week 16): −57.95%
- Target lesion Erythema, percent change from Baseline (Mean) (0.5% BID, Week 1): −9.95%
- Target lesion Plaque thickness, percent change from Baseline (Mean) (0.5% BID, Week 1): −14.52%
- Target lesion Scaling, percent change from Baseline (Mean) (0.5% BID, Week 1): −12.37%
- Target lesion Erythema, percent change from Baseline (Mean) (0.5% BID, Week 2): −23.61%
- Target lesion Plaque thickness, percent change from Baseline (Mean) (0.5% BID, Week 2): −33.89%
- Target lesion Scaling, percent change from Baseline (Mean) (0.5% BID, Week 2): −35.00%
- Target lesion Erythema, percent change from Baseline (Mean) (0.5% BID, Week 4): −45.54%
- Target lesion Plaque thickness, percent change from Baseline (Mean) (0.5% BID, Week 4): −44.64%
- Target lesion Scaling, percent change from Baseline (Mean) (0.5% BID, Week 4): −50.89%
- Target lesion Erythema, percent change from Baseline (Mean) (0.5% BID, Week 8): −62.33%
- Target lesion Plaque thickness, percent change from Baseline (Mean) (0.5% BID, Week 8): −62.67%
- Target lesion Scaling, percent change from Baseline (Mean) (0.5% BID, Week 8): −60.00%
- PGA response rate (primary endpoint) (0.5% BID, Week 8): 36%
- Mean change in nine items of the PSD from baseline (0.5% BID, Week 12): −4.2^‡
- Mean change in total target lesion grading scores from baseline (0.5% BID, Week 12): −6.2*
- Target lesion Erythema, percent change from Baseline (Mean) (0.5% BID, Week 12): −76.52%
- Target lesion Plaque thickness, percent change from Baseline (Mean) (0.5% BID, Week 12): −71.59%
- Target lesion Scaling, percent change from Baseline (Mean) (0.5% BID, Week 12): −78.03%
- subjects with ≥4 improvement in pruritus NRS score from baseline (0.5% BID, Week 12): 56%
- PGA response rate (PGA 0 or 1 and ≥2-grade improvement) (0.5% BID, Week 12): 46%
- PASI50 response rate (0.5% BID, Week 16): 62%
- PASI75 response rate (0.5% BID, Week 16): 46%
- PASI90 response rate (0.5% BID, Week 16): 27%
- PGA treatment success (0.5% BID): 35%
- PGA response at Week 12 (0.5% BID, psoriasis duration 5 years to <10 years): 20%
- PGA response at Week 12 (0.5% BID, psoriasis duration 6 months to <5 years): 50%
- PGA response at Week 12 (0.5% BID, psoriasis duration ≥10 years): 53%
- PGA response at Week 12 (0.5% BID, ≥10% BSA affected at baseline): 75%
- difference in PGA response rate, active minus vehicle (0.5% QD-vehicle QD, Week 12): 30.7%
- PGA response at Week 12 (0.5% QD, 1 to <10% BSA affected at baseline): 35%
- Target lesion Erythema, percent change from Baseline (Mean) (0.5% QD, Early WD): 8.33%
- Target lesion Plaque thickness, percent change from Baseline (Mean) (0.5% QD, Early WD): 0.00%
- Target lesion Scaling, percent change from Baseline (Mean) (0.5% QD, Early WD): −16.67%
- PGA response at Week 12 (0.5% QD, Fitzpatrick skin type I/II): 25%
- PGA response at Week 12 (0.5% QD, Fitzpatrick skin type III/IV): 44%
- PGA response at Week 12 (0.5% QD, Fitzpatrick skin type V/VI): 25%
- Target lesion Erythema, percent change from Baseline (Mean) (0.5% QD, Follow-up Week 14): −63.77%
- Target lesion Plaque thickness, percent change from Baseline (Mean) (0.5% QD, Follow-up Week 14): −67.39%
- Target lesion Scaling, percent change from Baseline (Mean) (0.5% QD, Follow-up Week 14): −67.75%
- Target lesion Erythema, percent change from Baseline (Mean) (0.5% QD, Follow-up/Week 16): −73.96%
- Target lesion Plaque thickness, percent change from Baseline (Mean) (0.5% QD, Follow-up/Week 16): −71.53%
- Target lesion Scaling, percent change from Baseline (Mean) (0.5% QD, Follow-up/Week 16): −69.79%
- Target lesion Erythema, percent change from Baseline (Mean) (0.5% QD, Week 1): −14.25%
- Target lesion Plaque thickness, percent change from Baseline (Mean) (0.5% QD, Week 1): −10.22%
- Target lesion Scaling, percent change from Baseline (Mean) (0.5% QD, Week 1): −20.97%
- Target lesion Erythema, percent change from Baseline (Mean) (0.5% QD, Week 2): −28.13%
- Target lesion Plaque thickness, percent change from Baseline (Mean) (0.5% QD, Week 2): −26.04%
- Target lesion Scaling, percent change from Baseline (Mean) (0.5% QD, Week 2): −34.38%
- Target lesion Erythema, percent change from Baseline (Mean) (0.5% QD, Week 4): −35.48%
- Target lesion Plaque thickness, percent change from Baseline (Mean) (0.5% QD, Week 4): −42.47%
- Target lesion Scaling, percent change from Baseline (Mean) (0.5% QD, Week 4): −51.34%
- Target lesion Erythema, percent change from Baseline (Mean) (0.5% QD, Week 8): −50.81%
- Target lesion Plaque thickness, percent change from Baseline (Mean) (0.5% QD, Week 8): −60.75%
- Target lesion Scaling, percent change from Baseline (Mean) (0.5% QD, Week 8): −68.01%
- PGA response rate (primary endpoint) (0.5% QD, Week 8): 46%
- Mean change in nine items of the PSD from baseline (0.5% QD, Week 12): −4.1^†
- Mean change in total target lesion grading scores from baseline (0.5% QD, Week 12): −5.8*
- PASI90 response rate (0.5% QD, Week 12): 18%
- Target lesion Erythema, percent change from Baseline (Mean) (0.5% QD, Week 12): −65.06%
- Target lesion Plaque thickness, percent change from Baseline (Mean) (0.5% QD, Week 12): −67.31%
- Target lesion Scaling, percent change from Baseline (Mean) (0.5% QD, Week 12): −72.76%
- subjects with ≥4 improvement in pruritus NRS score from baseline (0.5% QD, Week 12): 57%
- PGA response rate (PGA 0 or 1 and ≥2-grade improvement) (0.5% QD, Week 12): 36%
- PASI50 response rate (0.5% QD, Week 16): 71%
- PASI75 response rate (0.5% QD, Week 16): 54%
- PASI90 response rate (0.5% QD, Week 16): 18%
- PGA treatment success (0.5% QD): 36%
- PGA response at Week 12 (0.5% QD, psoriasis duration 5 years to <10 years): 50%
- PGA response at Week 12 (0.5% QD, psoriasis duration 6 months to <5 years): 29%
- PGA response at Week 12 (0.5% QD, psoriasis duration ≥10 years): 33%
- PGA response at Week 12 (0.5% QD, ≥10% BSA affected at baseline): 38%
- subjects rating overall psoriasis symptoms very improved or moderately improved (0.5% groups, Week 12): 77-80%
- subjects rating pruritus symptoms very improved or moderately improved (0.5% groups, Week 12): 73-77%
- PASI75 responders who maintained response from Week 12 to Week 16 (1% BID): 80%
- PGA responders who maintained response from Week 12 to Week 16 (1% BID): 67%
- difference in PGA response rate, active minus vehicle (1% BID-vehicle BID, Week 12): 54.7%
- PGA response at Week 12 (1% BID, 1 to <10% BSA affected at baseline): 67%

Source: patent US12569453B2, “Use of tapinarof for the treatment of atopic dermatitis” (Dermavant Sciences GmbH, priority 2018, dated 2026)
